From patent publication US8309550B2, “Kinase inhibitors and their use as pharmaceutical agents” (Shanghai Genomics, Inc., priority 2011, dated 2012)
pIC50: −log10 of the molar value. Read-outs that look alike come from different tables or passages of the source.

Columns and labels:
HeLa cells = assay: 72 h MTT cytotoxicity assay HeLa; assay type: cell-based; details: Homo sapiens
Text: (§1) MIT cytotoxicity assay. The compounds of the invention were subjected to a standard cellular proliferation assay using human cell lines. HeLa cells (Human cervix adenocarcinoma cell line, ATCC NO, CCL-2); A549 cells (Human lung carcinoma cells line, ATCC NO, CCL-185); U2OS cells (Human osteosarcoma cell line, ATCC NO, HTB-96); Eca-109 cells (Human esophageal carcinoma cell line); HepG2 (Human hepatocellular liver carcinoma cell line, ATCC NO, HB-8065); K562 cells (Human chronic myelogenous leukemia cell line, ATCC NO, CCL-243); SK-MEL-28 (Human malignant melanoma cell line, ATCC NO, HTB-72); Molt-4 (Human acute lymphoblastic leukemia cell line, ATCC NO, CRL-1582); H460 (Human large cell lung cancer cell line, ATCC NO, HTB-177); MDA-MB-231 (Human breast adenocarcinoma cell line, ATCC NO, HTB-26); MCF7 (Human breast adenocarcinoma cell line, ATCC NO, HTB-22); ACHN (Human renal cell adenocarcinoma cell line, ATCC NO, CRL-1611); PC-3M (Human prostate adenocarcinoma cell line, ATCC NO CRL-1435); HL60 (Human acute promyelocytic leukemia cell line, ATCC NO, CCL-240); THP-1 (Human acute monocytic leukemia, ATCC NO, TIB-202); Jurkat (Human acute T cell leukemia cell line, ATCC NO, CRL-2063); HCT-116 (Human colorectal carcinoma cell line, ATCC NO, CCL-247); HT-29 (Human colorectal adenocarcinoma cell line, ATCC NO, HTB-38™); WI-38 (Human normal lung cell line, ATCC NO, CCL-75); MRC-5 (Human normal lung cell line, ATCC NO, CCL-171).
(§2) HepG2, MDA-MB-231, WI-38 and MRC-5 cells were obtained from Shanghai Institute of Cell Biology, Chinese Academy of Sciences (Shanghai 200031, China). A549, HeLa, K562, MCF7, ACHN, H460, U2OS, Eca-109, MCF7, HL60, THP-1, Jurkat, HCT-116, HT-29, PC-3M, SK-MEL-28, Molt-4, H460 and […] cells were purchased from ATCC (American Type Culture Collection, USA).
(§3) Standard 72 h MTT (thiazolye blue; 3-[4,5-dimethylthiazol-2-yl]-2,5-diphenyltetrazolium bromide) assays were performed. Briefly, the cell lines used in this study were recovered and cultured according to the conditions recommended. 4000 cells per well were seeded into 96-well plates according to doubling time and incubated overnight at 37° C. Compounds were prepared in DMSO and a ½ dilution series in 100 μl cell culture media, added to cells (in duplicates) with the final DMSO concentration of 0.025%, and incubated for 72 hrs at 37° C. MTT solution (5 mg/ml) was added at 10 μl per well and incubated in the dark at 37° C. for 4 hr. Culture medium and MTT solution was removed. MTT dye was solubilised with 100 μl per well of DMSO with agitation. Absorbance was read at 562 nm and data analyzed using Sigmoid curve-fitting software Origin 6.0 (MicroCal, LLC, USA) to determine IC50 value.

THP-1 = assay: 72 h MTT cell viability THP-1; assay type: cell-based; details: Homo sapiens
Text: as §1, §2, §3

CDK9T1 = CDK9T1 (Homo sapiens, UniProt P50750); assay: Kinase assay CDK9T1 (Table I); assay type: biochemical; details: read-out: Kinase inhibition, IC50 CDK9T1
CDK9T1, sequence (P50750 whole entry): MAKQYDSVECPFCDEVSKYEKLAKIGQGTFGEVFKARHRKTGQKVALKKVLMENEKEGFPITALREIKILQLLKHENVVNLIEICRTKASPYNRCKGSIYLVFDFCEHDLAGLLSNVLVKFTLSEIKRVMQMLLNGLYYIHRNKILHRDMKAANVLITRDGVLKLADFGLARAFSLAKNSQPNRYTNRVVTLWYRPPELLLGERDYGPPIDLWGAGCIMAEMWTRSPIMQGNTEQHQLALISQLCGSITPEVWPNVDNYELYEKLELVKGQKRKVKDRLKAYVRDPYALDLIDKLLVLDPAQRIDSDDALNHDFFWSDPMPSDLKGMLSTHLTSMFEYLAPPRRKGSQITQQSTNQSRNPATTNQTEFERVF
CDK9T1, sequence (O60563 whole entry partner): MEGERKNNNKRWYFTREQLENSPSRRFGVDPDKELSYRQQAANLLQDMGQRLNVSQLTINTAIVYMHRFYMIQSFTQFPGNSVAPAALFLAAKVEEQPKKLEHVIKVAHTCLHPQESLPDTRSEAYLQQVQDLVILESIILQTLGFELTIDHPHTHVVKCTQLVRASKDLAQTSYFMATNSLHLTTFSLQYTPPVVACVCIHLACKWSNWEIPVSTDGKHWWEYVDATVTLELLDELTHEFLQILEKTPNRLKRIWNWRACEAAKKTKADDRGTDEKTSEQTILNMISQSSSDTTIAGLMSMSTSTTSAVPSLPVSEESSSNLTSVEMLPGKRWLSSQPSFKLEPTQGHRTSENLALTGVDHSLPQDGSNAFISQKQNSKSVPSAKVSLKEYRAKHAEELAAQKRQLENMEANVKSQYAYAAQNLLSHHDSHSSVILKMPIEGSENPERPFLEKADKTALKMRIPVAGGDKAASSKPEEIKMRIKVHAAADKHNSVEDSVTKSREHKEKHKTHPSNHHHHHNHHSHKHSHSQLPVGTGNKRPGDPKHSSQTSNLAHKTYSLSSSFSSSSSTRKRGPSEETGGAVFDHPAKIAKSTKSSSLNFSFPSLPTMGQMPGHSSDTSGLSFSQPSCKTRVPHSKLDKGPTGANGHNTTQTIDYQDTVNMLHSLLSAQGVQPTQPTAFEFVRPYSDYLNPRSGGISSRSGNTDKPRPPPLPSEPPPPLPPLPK
Protocol: [The source words this procedure for another target and reports this target under the same test.] Kinase assays. The compounds from the example above were tested for their ability to inhibit kinases. Recombinant human CDK2/cyclinA (PV3267), CDK1/cyclinB (PV3292), CDK5/p35 (PV3000) and Aurora A (PV3612) were purchased from Invitrogen (Carlsbad, Calif., USA). Kinase dosage and Z′-LYTE™ substrate for each kinase assay is as follows: CDK2/cyclinA-8 ng/reaction, Ser/Thr 12 Peptide; CDK1/cyclinB-0.8 ng/reaction, Ser/Thr 12 Peptide, CDK5/p35-0.8 ng/reaction, Ser/Thr 12 Peptide, and Aurora A-16 ng/reaction, Ser/Thr 1 Peptide. All enzymatic assays were performed using Z′-LYTE™ Kinase Assay Kits and were carried out following protocols provided by Invitrogen. To prepare stock solutions, compounds were dissolved at 10 mM in 100% DMSO and stored at 4° C. in amber glass vials. Enzyme reactions were initiated by adding recombinant enzyme and Z′-LYTE™ Ser/Thr peptide substrate and ATP mixture to 384-well plates containing diluted test compounds. Kinase and corresponding peptide substrate were incubated for 1 hr at room temperature in the presence of varying amounts of test compound with reaction buffer (20 μM ATP, […] [pH 7.5], 5 mM MgCl2, 0.5 mM EGTA, 0.005% Brij-35). Development buffer was added and incubated for another one hour at room temperature. Reactions were terminated by addition of stop buffer, and fluorescence emission intensity ratio 445 nm/520 nm (excited at 400 nm) was quantified by VICTOR-3 Multilabel Reader (Perkin-Elmer, Waltham, Mass., USA). Phosphorylation was calculated from the emission ratio. IC50 was determined using Sigmoid curve-fitting software Origin 6.0 (MicroCal, LLC, Northampton, Mass., USA).

SK-MEL-28-luc = assay: 72 h MTT cytotoxicity assay SK-MEL-28-luc; assay type: cell-based; details: Homo sapiens
Text: as §1, §2, §3

K562 cells = assay: 72 h MTT cytotoxicity assay K562; assay type: cell-based; details: Homo sapiens; K562, 72 hrs
Text: as §1, §2, §3

HT-29 = assay: 72 h MTT cell viability HT-29; assay type: cell-based; details: Homo sapiens
Text: as §1, §2, §3

ACHN-luc = assay: 72 h MTT cell viability ACHN-luc; assay type: cell-based; details: Homo sapiens
Text: as §1, §2, §3

MCF7 = assay: 72 h MTT cytotoxicity assay MCF7; assay type: cell-based; details: Homo sapiens; MCF7, 72 hrs
Text: as §1, §2, §3

Jurkat = assay: 72 h MTT cell viability Jurkat; assay type: cell-based; details: Homo sapiens
Text: as §1, §2, §3

U2OS cells = assay: 72 h MTT cytotoxicity assay U2OS; assay type: cell-based; details: Homo sapiens
Text: as §1, §2, §3

HL-60 = assay: 72 h MTT cell viability HL-60; assay type: cell-based; details: Homo sapiens
Text: as §1, §2, §3

Eca-109 cells = assay: 72 h MTT cytotoxicity assay Eca-109; assay type: cell-based; details: Homo sapiens; Eca-109, 72 hrs
Text: as §1, §2, §3

HCT 116 = assay: 72 h MTT cell viability HCT 116; assay type: cell-based; details: Homo sapiens
Text: as §1, §2, §3

WI-38 = assay: 72 h MTT cell viability WI-38 (normal lung); assay type: cell-based; details: Homo sapiens; WI-38, normal lung cell line
Text: as §1, §2, §3

MDA-MB-231-luc = assay: 72 h MTT cell viability MDA-MB-231-luc; assay type: cell-based; details: Homo sapiens
Text: as §1, §2, §3

[1] = THP-1, read-out: Cell Viability IC50 THP-1
[2] = read-out: Cell Viability IC50 HT-29
[3] = read-out: Cell Viability IC50 Jurkat
[4] = read-out: Cell Viability IC50 HCT 116
[5] = HT29, Table III, read-out: Cellular effect in mammalian cells IC50 HT29
[6] = HCT116, Table III, read-out: Cellular effect in mammalian cells IC50 HCT116
[7] = THP-1, Table III, read-out: Cellular effect in mammalian cells IC50 THP-1
[8] = Table III, read-out: Cellular effect in mammalian cells IC50 Jurkat

pIC50 (THP-1; [1])	pIC50 (CDK9T1)	pIC50 (HT-29; [2])	pIC50 (ACHN-luc)	pIC50 (Jurkat; [3])	pIC50 (HL-60)	pIC50 (HCT 116; [4])	pIC50 (HT-29; [5])	pIC50 (HCT 116; [6])	pIC50 (MDA-MB-231-luc)	pIC50 (THP-1; [7])	pIC50 (Jurkat; [8])	Compound	pIC50 (HeLa cells)	pIC50 (SK-MEL-28-luc)	pIC50 (K562 cells)	pIC50 (MCF7)	pIC50 (U2OS cells)	pIC50 (Eca-109 cells)	pIC50 (WI-38)
							7.70	8.40				CCCn1cc(-c2ccnc(Nc3cccc(S(N)(=O)=O)c3)n2)c2ccncc21 [SG51]							
										5.98	6.44	CCCn1cc(-c2ccnc(Nc3cccc(S(N)(=O)=O)c3)n2)c2nc(Cl)cc(C)c21 [SG53]							
							6.35	6.55		6.39	6.16	CCCn1cc(-c2ccnc(Nc3ccc(C)c(S(=O)(=O)N4CCOCC4)c3)n2)c2ccncc21 [SG52]							
							6.82	5.46		5.53	5.95	CCCn1cc(-c2ccnc(Nc3ccc(S(N)(=O)=O)cc3)n2)c2nc(Cl)cc(C)c21 [SG54]							

Second part, the compound before the results:

Compound	pIC50 (THP-1; [1])	pIC50 (CDK9T1)	pIC50 (HT-29; [2])	pIC50 (ACHN-luc)	pIC50 (Jurkat; [3])	pIC50 (HL-60)	pIC50 (HCT 116; [4])	pIC50 (HT-29; [5])	pIC50 (HCT 116; [6])	pIC50 (MDA-MB-231-luc)	pIC50 (THP-1; [7])	pIC50 (Jurkat; [8])	pIC50 (HeLa cells)	pIC50 (SK-MEL-28-luc)	pIC50 (K562 cells)	pIC50 (MCF7)	pIC50 (U2OS cells)	pIC50 (Eca-109 cells)	pIC50 (WI-38)
CCCn1cc(-c2ccnc(Nc3cccc(S(N)(=O)=O)c3)n2)c2cccnc21 [Compound 22, 3-(4-(1-Propyl-1H-pyrrolo[2,3-b]pyridin-3-yl)pyrimidin-2-ylamino)benzenesulfonamide]	5.49	7.01	5.84	5.43	5.83	5.68	5.72						5.78	5.57	5.85	5.95	5.67	5.47	
CCCn1cc(-c2ccnc(Nc3ccc(S(N)(=O)=O)cc3)n2)c2ccncc21 [Compound 112, 4-(4-(1-Propyl-1H-pyrrolo[2,3-c]pyridin-3-yl)pyrimidin-2-ylamino)benzenesulfonamide]	8.40	9.15	7.30	7.43	8.60	8.10	8.30						9.40	8.42	8.96	8.85	8.00	8.00	< 5.00
CCCn1cc(-c2ccnc(Nc3cccc(O)c3)n2)c2cccnc21 [Compound 16, 3-(4-(1-Propyl-1H-pyrrolo[2,3-b]pyridin-3-yl)pyrimidin-2-ylamino)phenol]		6.85		5.13						5.28			4.85	5.07	5.11	5.66	5.13	4.89	< 5.00
CCCn1cc(-c2ccnc(Nc3cccc(S(N)(=O)=O)c3)n2)c2ccncc21 [Compound 111, 3-(4-(1-Propyl-1H-pyrrolo[2,3-c]pyridin-3-yl)pyrimidin-2-ylamino)benzenesulfonamide]	8.00	9.22		7.22	8.27	8.00				7.52			8.00	8.00	7.52	7.10	7.52	7.30	
CCCn1cc(-c2ccnc(Nc3ccc(O)cc3)n2)c2cccnc21 [Compound 15, 4-(4-(1-Propyl-1H-pyrrolo[2,3-b]pyridin-3-yl)pyrimidin-2-ylamino)phenol]		5.85		5.11						5.23			4.98	5.03	5.01	6.92	5.13	4.70	< 5.00
CCCn1cc(-c2ccnc(Nc3cccc(S(N)(=O)=O)c3)n2)c2nc(Cl)cc(C)c21 [Compound 42, 3-(4-(5-Chloro-7-methyl-1-propyl-1H-pyrrolo[3,2-b]pyridin-3-yl)pyrimidin-2-ylamino)benzenesulfonamide]		7.39	6.70	< 5.00		5.94	5.47			5.89			5.00	5.02	< 5.00	< 5.00	5.73	4.98	
CCCn1cc(-c2ccnc(Nc3ccc(C)c(S(=O)(=O)N4CCOCC4)c3)n2)c2ccncc21 [Compound 102, N-(4-Methyl-3-(morpholinosulfonyl)phenyl)-4-(1-propyl-1H-pyrrolo[2,3-c]pyridin-3-yl)pyrimidin-2-amine]		9.40		6.21		6.64				6.12			6.31	6.00	5.84	5.89	6.24	5.45	
CCCn1cc(-c2ccnc(Nc3ccc(C)c(S(=O)(=O)N4CCOCC4)c3)n2)c2cccnc21 [Compound 24, N-(4-Methyl-3-(morpholinosulfonyl)phenyl)-4-(1-propyl-1H-pyrrolo[2,3-b]pyridin-3-yl)pyrimidin-2-amine]	5.28	6.00	5.87	5.25	5.75	5.46	5.46						5.80	5.52	5.43	5.46	5.48	5.28	< 5.00
CCn1cc(-c2ccnc(Nc3cccc(C#N)c3)n2)c2cccnc21 [Compound 20, 3-(4-(1-Ethyl-1H-pyrrolo[2,3-b]pyridin-3-yl)pyrimidin-2-ylamino)benzonitrile]	5.68	6.82	5.53	< 5.00	5.47	5.47	< 5.00			5.33			5.26	5.11	5.21	< 5.00	< 5.00	< 5.00	
